We go through 24 molecules from patent US7786141B2 (Vertex Pharmaceuticals Incorporated, priority 2004, dated 2010).

Structures are written as SMILES.

Broadly, the Emax is the size of the effect at its maximum, as opposed to the concentration needed.

The target of experiment [1] is T1, M4 muscarinic receptor (Homo sapiens, UniProt P08173).
T1 construct: expressed in transfected cells; host or cells: CHO (M4-CHO)
T1 sequence (P08173 1-479): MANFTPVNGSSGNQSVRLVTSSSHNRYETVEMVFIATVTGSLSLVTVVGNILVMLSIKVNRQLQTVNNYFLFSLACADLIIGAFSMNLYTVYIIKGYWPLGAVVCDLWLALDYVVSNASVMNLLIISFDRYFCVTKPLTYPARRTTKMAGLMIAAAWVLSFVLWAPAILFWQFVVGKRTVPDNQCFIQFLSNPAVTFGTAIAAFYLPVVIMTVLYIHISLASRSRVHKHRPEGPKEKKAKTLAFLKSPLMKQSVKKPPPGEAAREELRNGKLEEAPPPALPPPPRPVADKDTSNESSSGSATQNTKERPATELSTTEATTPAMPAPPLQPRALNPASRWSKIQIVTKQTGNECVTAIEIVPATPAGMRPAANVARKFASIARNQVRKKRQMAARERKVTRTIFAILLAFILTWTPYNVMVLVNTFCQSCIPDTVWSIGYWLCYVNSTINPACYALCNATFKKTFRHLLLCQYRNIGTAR
The experiment can be described thus: Functional mobilization of intracellular calcium (FLIPR) in M4-CHO cells. The experiment is classed as cell-based. The following applies: Table 4; for Emax: 100% efficacy is the maximum response obtained with the Carbachol control; for M4 Activity: modulating M4 receptor. In a few lines:
(§1)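 CHO cells stably expressing human M1 or M4 receptor were loaded with Fluo-3 AM (or Calcium 3 dye) in Hepes-buffered saline, pH 7.4, with 1 mM probenecid, 0.5% final DMSO. Agonist mode: compound added directly; antagonist mode: 15 min preincubation before carbachol at EC80. FLIPR fluorescence recorded 60 sec.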
On the technique in general: Calcium assays in cells follow changes in intracellular calcium, usually with a dye or a luminescent sensor.

The target in experiment [2] is T2, M1 muscarinic receptor (Homo sapiens, UniProt P11229).
T2 construct: expressed in transfected cells; host or cells: CHO (M1-CHO)
T2 sequence (P11229 1-460): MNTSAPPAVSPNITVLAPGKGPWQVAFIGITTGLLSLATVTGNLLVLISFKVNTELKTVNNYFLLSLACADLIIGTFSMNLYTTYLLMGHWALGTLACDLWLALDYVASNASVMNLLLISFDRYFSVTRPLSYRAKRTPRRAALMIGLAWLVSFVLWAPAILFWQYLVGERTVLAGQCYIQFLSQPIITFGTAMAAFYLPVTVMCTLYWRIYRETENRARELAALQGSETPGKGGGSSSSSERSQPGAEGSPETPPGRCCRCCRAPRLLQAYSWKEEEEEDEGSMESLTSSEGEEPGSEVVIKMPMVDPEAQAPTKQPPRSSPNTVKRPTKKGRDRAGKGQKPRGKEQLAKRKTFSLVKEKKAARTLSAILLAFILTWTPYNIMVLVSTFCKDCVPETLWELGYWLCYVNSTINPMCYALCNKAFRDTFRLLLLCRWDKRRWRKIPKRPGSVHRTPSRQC
Briefly: Functional mobilization of intracellular calcium (FLIPR) in M1-CHO cells. It counts as cell-based. The following applies: Table 4; for Emax: 100% efficacy is the maximum response obtained with the Carbachol control; for M1 Activity: modulating M1 receptor. A digest of the protocol: as §1

Turning to `CC(=O)N[C@@H]1CCC2(CCN(C3CCCCCC3)CC2)c2ccccc21` [compound 666], in experiment [1], the Emax was 25 to 100% and the “M4 Activity” value was “xxx (activity was measured to be less than 2.0 μM)”. Also, in experiment [2], the maximal effect (Emax) was < 25% and the “M1 Activity” value is on record as “x (activity was measured to be greater than 5.0 μM)”.
As for `Cc1ccc2c(c1)C1(CCN(C3CC4CCC3C4)CC1)CN2C(=O)NC(C)C` (stereo not drawn) [compound 667], in experiment [1], the Emax lay within 25 to 100% and the “M4 Activity” value is reported as “x (activity was measured to be greater than 5.0 μM)”. Further, in experiment [2], the Emax is < 25% and the “M1 Activity” value was “x (activity was measured to be greater than 5.0 μM)”.
`CS(=O)(=O)N[C@H]1CCC2(CCN([C@H]3CC4CC[C@H](C4)C3)CC2)c2ccccc21` [compound 668]: in experiment [1], the Emax lay within 25 to 100% and the “M4 Activity” value was “xxx (activity was measured to be less than 2.0 μM)”. Besides, in experiment [2], the Emax fell in the range of 25 to 100% and the “M1 Activity” value was “xxx (activity was measured to be less than 2.0 μM)”.
As to `CCOC(=O)N1C2CCC1CC(N1CCC3(CC[C@@H](NC(C)=O)c4ccccc43)CC1)C2` (stereo partly drawn) [compound 669], in experiment [1], the Emax fell in the range of 25 to 100% and the “M4 Activity” value is “xxx (activity was measured to be less than 2.0 μM)”. Also, in experiment [2], the Emax lay in the range of 25 to 100% and the “M1 Activity” value is “xxx (activity was measured to be less than 2.0 μM)”.
Regarding `CCCN1CC2(CCN(C[C@@H]3C[C@H]4C=C[C@H]3C4)CC2)c2cc(F)ccc21` [compound 670], in experiment [1], the Emax is 25 to 100%; the “M4 Activity” value was “xx (activity was measured to be between 2.0 μM and 5.0 μM)”. In experiment [2], the Emax lay within 25 to 100% and the “M1 Activity” value was “x (activity was measured to be greater than 5.0 μM)”.
On to `CC(=O)N[C@H]1CC2(CCN(CC(=O)N3CCCC3)CC2)c2ccccc21` [compound 671], for which, in experiment [1], the Emax is < 25% and the “M4 Activity” value was “x (activity was measured to be greater than 5.0 μM)”. Moreover, in experiment [2], the Emax was < 25% and the “M1 Activity” value is on record as “x (activity was measured to be greater than 5.0 μM)”.
`CC#CCOC(=O)N1CCC(N2CCC3(CC2)CN(C(C)=O)c2ccccc23)CC1` [compound 672]: in experiment [1], the Emax fell in the range of 25 to 100% and the “M4 Activity” value is “xxx (activity was measured to be less than 2.0 μM)”. Also, in experiment [2], the Emax lay in the range of 25 to 100% and the “M1 Activity” value is given as “xxx (activity was measured to be less than 2.0 μM)”.
Consider `CN(C)C(=O)NC1CCC2(CCN(CC3CCCCC3)CC2)c2ccccc21` (stereo not drawn) [compound 673], for which, in experiment [1], the Emax lay in the range of 25 to 100%; the “M4 Activity” value was “xx (activity was measured to be between 2.0 μM and 5.0 μM)”. In experiment [2], the maximal effect (Emax) was < 25% and the “M1 Activity” value is listed as “x (activity was measured to be greater than 5.0 μM)”.
Take `COCC(=O)N1CCC(N2CCC3(CC2)CN(C(=O)N(C)C)c2ccc(F)cc23)CC1` [compound 674]: in experiment [1], the Emax was in the range of 25 to 100% and the “M4 Activity” value is “x (activity was measured to be greater than 5.0 μM)”. For the same molecule, in experiment [2], the Emax fell in the range of 25 to 100% and the “M1 Activity” value is given as “x (activity was measured to be greater than 5.0 μM)”.
For the molecule `CCC#CCOC(=O)N1CC[C@H](CN2CCC3(CC2)CN(C(=O)N(C)C)c2ccc(F)cc23)C1` [compound 675], in experiment [1], the Emax was 25 to 100% and the “M4 Activity” value is “xxx (activity was measured to be less than 2.0 μM)”. In experiment [2], the Emax fell in the range of 25 to 100% and the “M1 Activity” value is “xxx (activity was measured to be less than 2.0 μM)”.
As for `CCOC(=O)N1CCC(N2CCC3(CC2)CN(C(C)=O)c2c(-c4ccncc4)cccc23)CC1` [compound 677], in experiment [1], the Emax is < 25% and the “M4 Activity” value is “x (activity was measured to be greater than 5.0 μM)”. In addition, in experiment [2], the Emax lay within 25 to 100% and the “M1 Activity” value is reported as “x (activity was measured to be greater than 5.0 μM)”.
With `CC(=O)N1CC2(CCN(C3CCN(c4cncc(-c5ccccc5C)n4)CC3)CC2)c2ccccc21` [compound 678], in experiment [1], the Emax was < 25% and the “M4 Activity” value is recorded as “x (activity was measured to be greater than 5.0 μM)”. In experiment [2], the Emax lay in the range of 25 to 100% and the “M1 Activity” value is on record as “xxx (activity was measured to be less than 2.0 μM)”.
`COC(=O)N1C2CCC1CC(N1CCC3(CC1)CN(C(C)=O)c1ccccc13)C2` (stereo not drawn) [compound 679]: in experiment [1], the Emax lay within 25 to 100% and the “M4 Activity” value is recorded as “xxx (activity was measured to be less than 2.0 μM)”. Further, in experiment [2], the Emax was in the range of 25 to 100% and the “M1 Activity” value is given as “xxx (activity was measured to be less than 2.0 μM)”.
As to `COC(=O)N1CC[C@H](CN2CCC3(CC2)CN(C(C)=O)c2ccccc23)C1` [compound 680], in experiment [1], the Emax is 25 to 100% and the “M4 Activity” value is reported as “xxx (activity was measured to be less than 2.0 μM)”. In experiment [2], the Emax is 25 to 100%; the “M1 Activity” value was “xx (activity was measured to be between 2.0 μM and 5.0 μM)”.
For the molecule `COCCOC(=O)N1CC[C@H](CN2CCC3(CC2)CN(C(C)=O)c2ccccc23)C1` [compound 681], in experiment [1], the Emax was < 25% and the “M4 Activity” value is “x (activity was measured to be greater than 5.0 μM)”. Also, in experiment [2], the Emax is 25 to 100% and the “M1 Activity” value is listed as “x (activity was measured to be greater than 5.0 μM)”.
Take `CC(=O)N[C@@H]1CC2(CCN(C3CCC3)CC2)c2ccccc21` [compound 682]: in experiment [1], the Emax is < 25% and the “M4 Activity” value is recorded as “x (activity was measured to be greater than 5.0 μM)”. Also, in experiment [2], the Emax is < 25% and the “M1 Activity” value is “x (activity was measured to be greater than 5.0 μM)”.
`CCCCOC(=O)N1CCC(N2CCC3(CC2)CN(C(C)=O)c2ccccc23)CC1` [compound 683]: in experiment [1], the Emax is < 25% and the “M4 Activity” value was “x (activity was measured to be greater than 5.0 μM)”. In addition, in experiment [2], the Emax was in the range of 25 to 100%; the “M1 Activity” value was “xx (activity was measured to be between 2.0 μM and 5.0 μM)”.
Consider `CC(=O)N[C@H]1CC2(CCN(CC3CCN(C(=O)O[C@@H]4CCOC4)CC3)CC2)c2ccccc21` [compound 684], for which, in experiment [1], the Emax is < 25% and the “M4 Activity” value is reported as “x (activity was measured to be greater than 5.0 μM)”. In addition, in experiment [2], the Emax was < 25% and the “M1 Activity” value is on record as “x (activity was measured to be greater than 5.0 μM)”.
Consider `CN(C)C(=O)N1CC2(CCN(C3CCNCC3)CC2)c2cc(F)ccc21` [compound 685], for which, in experiment [1], the Emax is 25 to 100% and the “M4 Activity” value is “xxx (activity was measured to be less than 2.0 μM)”. Further, in experiment [2], the Emax was < 25% and the “M1 Activity” value is on record as “x (activity was measured to be greater than 5.0 μM)”.
On to `CCOC(=O)N1C2CCC1CC(N1CCC3(CC1)CN(C(C)=O)c1c(C(F)(F)F)cccc13)C2` (stereo not drawn) [compound 686], for which, in experiment [1], the Emax is < 25% and the “M4 Activity” value was “x (activity was measured to be greater than 5.0 μM)”. Besides, in experiment [2], the maximum response (Emax) was < 25% and the “M1 Activity” value is listed as “x (activity was measured to be greater than 5.0 μM)”.
Turning to `CN(C)C(=O)N[C@H]1CC2(CCN(CCC3CC4CC[C@@H]3C4)CC2)c2ccccc21` (stereo partly drawn) [compound 687], in experiment [1], the Emax was < 25% and the “M4 Activity” value was “x (activity was measured to be greater than 5.0 μM)”. Also, in experiment [2], the Emax was < 25% and the “M1 Activity” value is given as “x (activity was measured to be greater than 5.0 μM)”.
On to `CCOC(=O)N1CCC(N2CCC3(CC2)CN(C(=O)N2CCCCC2)c2ccccc23)CC1` [compound 688], for which, in experiment [1], the Emax lay within 25 to 100% and the “M4 Activity” value is reported as “xxx (activity was measured to be less than 2.0 μM)”. In experiment [2], the maximal effect (Emax) fell in the range of 25 to 100% and the “M1 Activity” value was “xxx (activity was measured to be less than 2.0 μM)”.
Take `CCOC(=O)N1CCC(N2CCC3(CC2)CN(C2CCC4(CC2)OCCO4)c2ccc(F)cc23)CC1` [compound 689]: in experiment [1], the Emax lay within 25 to 100% and the “M4 Activity” value is recorded as “xxx (activity was measured to be less than 2.0 μM)”. Also, in experiment [2], the maximum response (Emax) is > 100% and the “M1 Activity” value was “xxx (activity was measured to be less than 2.0 μM)”.
Turning to `CC(=O)N[C@H]1CC2(CCN(C3CCCCC3)C2)c2ccc(F)cc21` (stereo partly drawn) [compound 691], in experiment [1], the Emax was < 25% and the “M4 Activity” value is recorded as “x (activity was measured to be greater than 5.0 μM)”. In addition, in experiment [2], the Emax lay within 25 to 100% and the “M1 Activity” value is recorded as “x (activity was measured to be greater than 5.0 μM)”.
